Data set [1] has as its system β-galactosidase in tumor sections. In words: IHC analysis of β-galactosidase staining in intraliver tumor sections after i.v. dosing of Lipid-Based Particles. It is filed as in vivo, Scid female mice. Details: key: −: there was no staining, a small area of weak staining, or disperse strong single cell staining; ±: there was 5% of the section with weak staining or one patch of strong staining; +: there was 15% of the section with strong staining; ++: there was ˜50% of the section with strong straining; +++: there was 80% of the section with strong straining; ++++: the whole section had strong staining. The conditions noted are these: intraliver tumor model, Scid mice, tail vein (i.v) injection. The protocol: The animal studies were carried out in accordance with internal Institutional Animal Care and Use Committee (IACUC) guidelines at Abbott Laboratories. Scid female mice at 6 to 8 weeks of age were obtained from Charles River Laboratory and used for […] tumor models. Mouse livers were exposed by vertical incision on mouse abdomens and the tumor cells were directly injected into the livers. The incision was closed by suture and wound clips. All cell lines used for creating xenograft tumors were subjected to the IMPACT profile I test (18 agents) at the University of Missouri Research Animal Diagnostic and Investigative Laboratory, and all cell lines were found negative for the 18 infectious agents tested. Tumor cells were suspended in a 1:1 mixture of S-MEM (Invitrogen, Carlsbad, Calif.) and matrigel (BD Bioscience, San Jose, Calif.) and inoculated at 1×10E6 cells per animal. Treatments were started 3 4 weeks after tumor inoculation. Formulated or unformulated siRNAs were administrated via tail vein (i.v) injection. IHC was carried out as previously described [Li, L., et al., Evaluating hypoxia-inducible factor-1alpha as a cancer therapeutic target via inducible RNA interference in vivo. Cancer Res, 2005. 65(16): p. 7249-58]. Briefly, tumors were excised, cut into pieces of less than 3 mm in thickness and immediately fixed in buffered formalin solution with neutral pH (Sigma, St. Louis, Mo.). The formalin-fixed and paraffin-embedded tumor sections were then used for staining. The mouse anti-β-galactosidase mAb (Promega, Madison, Wis.) was used to detect β-galactosidase in tumor sections. […] IHC images were acquired using the Nikon TE2000 inverted microscope. The β-galactosidase staining was evaluated by 2 people independently based on the scoring system listed below. The average of the score was calculated for each tumor.

Data set [2] in a line: Particle sizing assay of in vivo formulations (Zetasizer Nano ZS). It is filed as physicochemical. As to conditions: Lipid:siRNA 25:1. Here is the method:
(§1) A round bottom flask was submerged into a 65° C. water bath. Citrate buffer (37.5 ml) of pH 4.0 was pipetted into the flask. The solution was stirred by a magnetic stirring bar at a speed of 900 rpm. Both the pH 4.0 citrate buffer and the lipid solution were pre-warmed in the 65° C. water bath for about 3 minutes. A siRNA solution (0.5 ml) was pipetted into the pH 4.0 citrate buffer. The 12.5 ml lipid mixture solution was injected through a 27 gauge needle into the citrate buffer in about 30 seconds. The needle tip was inserted into the solution during the injection. The resulting solution was stirred for 5 minutes at a speed of 900 rpm. The flask was pulled up from the water bath and a 50 ml pH 7.4 PBS buffer was added into the flask. The final solution was further mixed at a speed of 900 rpm for 5 minutes. For the diafiltration process, a dialysis filter (Millipore, 100K, Cat #PXB100C50) was used to remove ethanol in the above solution. When the volume was reduced to 20 ml during the initial diafiltration, 20 ml of pH 7.4 PBS was added to the sample solution. The diafiltration was continued until the volume was reduced to 20 ml. The diafiltration process was repeated 4 times. The volume of the sample solution was reduced to about 12 ml and pH 7.4 PBS was added to make the final volume of 15 ml. The 15 ml solution was filtered sequentially through the 0.45 and 0.22 μm sterile PVDF membrane filters (Millipore) and immediately transferred into a sterile vial.
For measurements of particle sizes and size distributions (PDI), lipid-based particles were prepared as described above. The particle solution (60 μL) was pipetted into a disposable cuvette (UVette, Eppendorf, cat #952010051) and measured in the “General Purpose” mode. Attenuator and position were optimized by the device. Measurements were performed using a Zetasizer Nano ZS (Malvern Instruments) equipped with a 4 mW He—Ne laser at a wavelength of 633 nm at 25° C. Scattered light was detected at a 173° backward scattering angle. The viscosity and refractive index of water at 25° C. was used for data analysis with the Dispersion Technology Software 5.00 (Malvern Instruments).

A short description of data set [3]: Ribogreen assay for siRNA encapsulation efficiency of Lipid-Based Particles. The format is physicochemical. The conditions noted are these: Lipid:siRNA 25:1. Here is the method:
The mixing solution of cationic lipids, cholesterol, non-cationic lipids and PEG-lipids was prepared in ethanol (total concentration at 10 mg/mL). siSTABLE (purchased from ThermoFisher) (sense-5′ GGGGAAAGCUGGCAAGAUUUU-3′ SEQ ID NO: 1) antisense-5′-AAUCUUGCCAGCUUUCCCCUU-3′ SEQ ID NO: 2) % stock solution was prepared in 10 mg/mL of solution by dissolving 10 mg siRNA in 1 mL of RNAse-free UltraPure Water. The calculated amount of siRNA solution was added to 1 mL of citrate buffer (pH 4.0, 20 mM), to provide an siRNA concentration of 0.2 mg/mL, and warmed to 60° C. The calculated amount of lipid solution was warmed to 60° C., transferred to a 0.5 mL syringe with 28½ gauge needle, and injected into the citrate buffer with stirring at 60° C. After 3 minutes, 3 mL of PBS solution at room temperature (pH 7.4) was added into the lipid mixture with stirring. The Lipid-Based Particle solution was cooled to room temperature.
(§2) The siRNA concentrations were measured using Quanti-iT RiboGreen RNA reagent (Molecular Probes, (R11490)). Vesicle sizes were characterized by dynamic light scattering with a DynaPro™ Plate Reader (Wyatt Technology) in 96-well half-area UV plate (Coring) after diluting the formulation sample (20 μL) in phosphate buffered saline (80 μL) at a pH of about 7-8. A 1% agarose gel-based assay was used for analyzing nuclease degradation and protection. Encapsulation efficiency (EE) was calculated using data obtained from a RiboGreen assay.
RNA concentration and encapsulation efficiency were determined using a Quant-iT® Ribogreen RNA reagent and kit available from Invitrogen. The siRNA was released from the Lipid-Based Particle using one of the following reagents: ethanol, Triton X-100, or phenol/chloroform. The siRNA concentration is quantified using fluorescent reading at 480 nm/520 nm.
as §1

The nature of data set [4]: Particle sizing assay of in vitro formulations (dynamic light scattering, DynaPro plate reader). The format is physicochemical. As to conditions: in vitro formulation b: Cationic lipid/PEG-Chol/DSPC/Chol 45/10/15/30 wt %, Lipid:siRNA 25:1. The protocol:
as §2
Particle sizes and size distributions (PDI) were characterized by using dynamic light scattering (DLS). A DLS plate reader (Dynapro™, Wyatt Technology) was used for the DLS measurement. This DLS plate reader uses an 830 nm laser and the scattering angle is 158°. It also can control temperature from 4° C. to 70° C. A 96-well format was employed for the samples.
Samples for DLS analysis were prepared by mixing 20 μL of each sample stock solution with 80 μL PBS directly in the 96-well plate (#3697, Coming). Sample mixing was accomplished using a microplate shaker (Orbis, Mikura Ltd.). Plates were read at 20° C. with an acquisition time of 50 seconds for each sample, and data was analyzed with Wyatt Technology's Dynamics V6 software. To rule out potential multiple scattering artifacts, a second plate at […] reduced sample concentrations was independently prepared by mixing 5 μL stock solutions with 95 μL PBS. Under our experimental conditions the results at the two concentrations were very similar, and the final reported result for each sample represents the average of values obtained from the two plates.

The mark [5] stands for this setting: in vivo formulation A: Cationic lipid/Example 58/DSPC/Chol 45/10/15/30 wt %.
Where [6] appears, read: in vivo formulation C: Cationic lipid/Pal-PEG-Cera/DSPC/Chol 45/10/15/30 wt %.

SMILES strings stand for the structures.

Regarding `C[C@H]1c2cccc(O)c2C(=O)C2=C(O)[C@]3(O)C(=O)C(C(N)=O)=C(O)[C@@H](N(C)C)[C@@H]3[C@@H](O)[C@@H]21` [Doxycycline], the “In vivo Response (β-galactosidase IHC staining score)” value in data set [1] (column 1 (individual tumor, head not explained)) is recorded as “+++”; in data set [1] (column 2 (individual tumor, head not explained)) it was “+++”; in data set [1] (column 3 (individual tumor, head not explained)) it was “+++”; in data set [1] (column 4 (individual tumor, head not explained)) it was “+++”; in data set [1] (column 5 (individual tumor, head not explained)) it was “+++”; in data set [1] (column 6 (individual tumor, head not explained)), “+++”.
In the case of `CCCCC/C=C\C/C=C\CCCCCCCCOCC(COCCCCCCCC/C=C\C/C=C\CCCCC)NCCc1c[nH]cn1` [Example 9, N-(2-(1H-imidazol-4-yl)ethyl)-N-(2-((9Z,12Z)-octadeca-9,12-dienyloxy)-1-(((9Z,12Z)-octadeca-9,12-dienyloxy)methyl)ethyl)amine], the “PDI (size distribution)” value in data set [2] (setting [5]) is on record as 0.13; in data set [2] (setting [6]), 0.104. The figures for the Size in data set [2] (setting [5]), in data set [2] (setting [6]) and in data set [4] were 138 nm, 87 nm and 116.8 nm, respectively. Also, the “% Encapsulation Efficiency” value in data set [3] (in vitro formulation b: Cationic lipid/PEG-Chol/DSPC/Chol 45/10/15/30 wt %) worked out at 95.8%; in data set [3] (setting [6]), 98.9%.

Values taken from patent US20100055168A1, “CATIONIC LIPIDS AND USES THEREOF” (ABBOTT LABORATORIES, priority 2008, published 2010).
